Source: patent US20220289816A1, “IMMUNOTHERAPY WITH B*07 RESTRICTED PEPTIDES AND COMBINATION OF PEPTIDES AGAINST CANCERS AND RELATED METHODS” (Immatics Biotechnologies GmbH, priority 2018, published 2022)

Experiments:
[1] = system: CD8+ T cells; assay: In vitro immunogenicity: in vitro T-cell priming assay with aAPCs loaded with peptide/MHC complexes and anti-CD28 antibody, pMHC multimer readout; assay type: cell-based, human; settings: Table 10b, pMHC multimer readout after priming of CD8+ T cells
Excerpt: In order to obtain information regarding the immunogenicity of the TUMAPs of the present invention, the inventors performed investigations using an in vitro T-cell priming assay based on repeated stimulations of CD8+ T cells with artificial antigen presenting cells (aAPCs) loaded with peptide/MHC complexes and anti-CD28 antibody.
In order to perform in vitro stimulations by artificial antigen presenting cells loaded with peptide-MHC complex (pMHC) and anti-CD28 antibody, the inventors first isolated CD8+ T cells from fresh HLA-B*07 leukapheresis products via positive selection using CD8 microbeads (Miltenyi Biotec, Bergisch-Gladbach, Germany) of healthy donors obtained from the University clinics Mannheim, Germany, after informed consent.
PBMCs and isolated CD8+ lymphocytes were incubated in T-cell medium (TCM) until use consisting of RPMI-Glutamax (Invitrogen, Karlsruhe, Germany) supplemented with 10% heat inactivated human AB serum (PAN-Biotech, Aidenbach, Germany), 100 U/ml Penicillin/100 μg/ml Streptomycin (Cambrex, Cologne, Germany), 1 mM sodium pyruvate (CC Pro, Oberdorla, Germany), 20 μg/ml Gentamycin (Cambrex). 2.5 ng/ml IL-7 (PromoCell, Heidelberg, Germany) and 10 U/ml IL-2 (Novartis Pharma, Nürnberg, Germany) were also added to the TCM at this step.
Generation of pMHC/anti-CD28 coated beads, T-cell stimulations and readout was performed in a highly defined in vitro system using four different pMHC molecules per stimulation condition and 8 different pMHC molecules per readout condition.
The purified co-stimulatory mouse IgG2a anti human CD28 Ab 9.3 (Jung et al., 1987) was chemically biotinylated using Sulfo-N-hydroxysuccinimidobiotin as recommended by the manufacturer (Perbio, Bonn, Germany). Beads used were 5.6 μm diameter streptavidin coated polystyrene particles (Bangs Laboratories, Illinois, USA).
800.000 beads/200 μl were coated in 96-well plates in the presence of 4×12.5 ng different biotin-pMHC, washed and 600 ng biotin anti-CD28 were added subsequently in a volume of 200 μl. Stimulations were initiated in 96-well plates by co-incubating 1×10^6 CD8+ T cells with 2×10^5 washed coated beads in 200 μl TCM supplemented with 5 ng/ml IL-12 (PromoCell) for 3 days at 37° C. Half of the medium was then exchanged by fresh TCM supplemented with 80 U/ml IL-2 and incubating was continued for four days at 37° C. This stimulation cycle was performed for a total of three times. For the pMHC multimer readout using 8 different pMHC molecules per condition, a two-dimensional combinatorial coding approach was used as previously described (Andersen et al., 2012) with minor modifications encompassing coupling to five different fluorochromes. Finally, multimeric analyses were performed by staining the cells with Live/dead near IR dye (Invitrogen, Karlsruhe, Germany), CD8-FITC antibody clone SK1 (BD, Heidelberg, Germany) and fluorescent pMHC multimers. For analysis, a BD LSRII SORP cytometer equipped with appropriate lasers and filters was used. Peptide specific cells were calculated as percentage of total CD8+ cells. Evaluation of multimeric analysis was done using the FlowJo software (Tree Star, Oregon, USA). In vitro priming of specific multimer+CD8+ lymphocytes was detected by comparing to negative control stimulations.

[2] = target: HLA-B*07 (Homo sapiens, UniProt P01889); assay: MHC binding assay (UV-ligand exchange, ELISA of stabilized MHC complexes); settings: peptide exchange yield on HLA-B*07, UV-ligand exchange
Outline: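 Peptide–MHC complexes were made by UV-ligand exchange, in which a UV-cleavable peptide is replaced by the test peptide. Exchange yield was measured by ELISA of stabilized complexes on streptavidin-coated plates, using HRP anti-β2m detection (1 h, 37 °C), TMB substrate and absorbance at 450 nm.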

| Substance | Wells positive [%] [1] | Peptide exchange [2] |
| --- | --- | --- |
| 12 (LPNTGRIGQLL; listed as Homo sapiens) [compound 12] | ++ (20%-49% = ++) | ++++ (>75% = ++++) |
| 24 (VPRPTSTVGLFL; listed as Homo sapiens) [compound 24] | + (<20% = +) | ++++ (>75% = ++++) |
| 3 (MPYVVLTAL; listed as Homo sapiens) [compound 3] | + (<20% = +) | ++++ (>75% = ++++) |
| 61 (LPRIPFSTF; listed as Homo sapiens) [compound 61] | ++ (20%-49% = ++) | ++++ (>75% = ++++) |
| 17 (SPAAPLSPASSL; listed as Homo sapiens) [compound 17] | + (<20% = +) | ++++ (>75% = ++++) |
| 51 (SPVFYVQTL; listed as Homo sapiens) [compound 51] | + (<20% = +) | ++++ (>75% = ++++) |
| 26 (SPSFSSTLLSL; listed as Homo sapiens) [compound 26] | + (<20% = +) | ++++ (>75% = ++++) |
| 6 (LPLNSSTSL; listed as Homo sapiens) [compound 6] | + (<20% = +) | ++++ (>75% = ++++) |
| 64 (VPRPIFSQLYL; listed as Homo sapiens) [compound 64] | +++ (50%-69% = +++) | ++++ (>75% = ++++) |
| 59 (KPRTIYSSL; listed as Homo sapiens) [compound 59] | + (<20% = +) | ++++ (>75% = ++++) |
| 45 (TRPWSGPYIL; listed as Homo sapiens) [compound 45] | + (<20% = +) | +++ (>50 = +++) |
| 21 (APSRLLEL; listed as Homo sapiens) [compound 21] | + (<20% = +) | ++++ (>75% = ++++) |
| 48 (RPRYSIGL; listed as Homo sapiens) [compound 48] | + (<20% = +) | +++ (>50 = +++) |
| 9 (RPDSRLLEL; listed as Homo sapiens) [compound 9] | +++ (50%-69% = +++) | ++++ (>75% = ++++) |
| 49 (APEKARAFL; listed as Homo sapiens) [compound 49] | + (<20% = +) | +++ (>50 = +++) |
| 53 (SPRIPFSTF; listed as Homo sapiens) [compound 53] | + (<20% = +) | ++++ (>75% = ++++) |
| 1 (RPRSLQCVSL; listed as Homo sapiens) [compound 1] | + (<20% = +) | ++++ (>75% = ++++) |
| 23 (VPRPTSTVGL; listed as Homo sapiens) [compound 23] | ++ (20%-49% = ++) | +++ (>50 = +++) |
| 38 (RPSFPNLTSF; listed as Homo sapiens) [compound 38] | + (<20% = +) | ++++ (>75% = ++++) |
